The structures appear in SMILES notation.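 How tested: cells in 96-well plates exposed to compound for 48 hours at five concentrations. GI50: concentration for 50% inhibition of growth.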 Active and inactive are the calls of the source. Rule as the data show it: active = GI50 up to about 1.1 µM and inactive = higher.

The results in this text go back to ChEMBL document CHEMBL1201862, “PubChem BioAssay data set” (2004).

Some test systems named below: KM12; MCF7; PC-3; HOP-92; HCT-15; BT-549; COLO 205; SK-MEL-5; ACHN; SW-620; HCT-116; OVCAR-4; NCI-H23; UACC-257; NCI-H522; SNB-75; A498; T47D; NCI-H460; DU-145.
What all share (test): NCI tumour cell line growth inhibition, 48 h

`Nc1nc(Cl)cc(NCC2CC(O)(CO)C2)n1` (stereo not given): the GI50 in the assay on KM12 was > 100 µM (inactive); in the assay on MCF7, > 100 µM (inactive); in the assay with PC-3 it was > 100 µM (inactive); in the assay on HOP-92, > 100 µM (inactive); with HCT-15, over 100 µM; with BT-549, > 100 µM (inactive). Further, the GI50 in the assay on COLO 205, in the assay with SK-MEL-5, in the assay with ACHN, in the assay on SW-620, with HCT-116 and in the assay with OVCAR-4 was > 100 µM (inactive) in each case. In addition, the GI50 with NCI-H23, in the assay on UACC-257, in the assay on NCI-H522, in the assay with SNB-75, in the assay on A498 and in the assay on T47D was > 100 µM (inactive) in each case. Moreover, the GI50 with NCI-H460 and in the assay with DU-145 was > 100 µM (inactive) throughout.

For the compound `O=C(O)c1c2c(cc3c1CC1(Cc4cc5c(cc4C1=O)CCC5)C3)CCC2` (stereo not given), the GI50 was 89.5 µM (inactive) in the assay with KM12; 42.4 µM (inactive) with MCF7; > 100 µM (inactive) in the assay on PC-3; > 100 µM (inactive) in the assay on HOP-92; 74.1 µM with HCT-15; 86.3 µM (inactive) in the assay on BT-549. Also, the GI50 was 52.4 µM (inactive) in the assay with COLO 205; > 100 µM (inactive) in the assay with SK-MEL-5; 56.4 µM (inactive) with ACHN; > 100 µM (inactive) in the assay on SW-620; 87.5 µM (inactive) with HCT-116; 52.2 µM (inactive) in the assay on OVCAR-4. Moreover, the GI50 was 81.1 µM (inactive) in the assay on NCI-H23; 56.6 µM (inactive) in the assay on UACC-257; 76.4 µM (inactive) in the assay with NCI-H522; > 100 µM (inactive) in the assay on SNB-75; > 100 µM (inactive) in the assay on A498; 80 µM (inactive) in the assay on T47D. The values for the GI50 in the assay with NCI-H460 and in the assay on DU-145 were 71.1 µM (inactive) and 98.2 µM (inactive), respectively.

As for `O=NN(Cc1ccc(Cl)cc1)C(C(=O)O)c1ccccc1` (stereo not given), the GI50 with KM12 is > 100 µM (inactive); in the assay on MCF7 it was > 100 µM (inactive); in the assay on PC-3 it was > 100 µM (inactive); in the assay on HOP-92, > 100 µM (inactive); in the assay on HCT-15, over 100 µM; with BT-549 it was > 100 µM (inactive). For the same compound, the GI50 in the assay with COLO 205, in the assay with SK-MEL-5, in the assay with ACHN, in the assay with SW-620, with HCT-116 and in the assay on OVCAR-4 was > 100 µM (inactive) in each case. Also, the GI50 in the assay with NCI-H23 was > 100 µM (inactive); in the assay on UACC-257, 47.2 µM (inactive); with NCI-H522, > 100 µM (inactive); in the assay on SNB-75 it was > 100 µM (inactive); in the assay with A498, > 100 µM (inactive); in the assay with T47D, > 100 µM (inactive). The GI50 in the assay with NCI-H460 and in the assay on DU-145 was > 100 µM (inactive) throughout.

For the compound `C1=N\c2ccc(cc2)-c2ccc(cc2)/N=C\c2ccc(cc2)OCc2cccc(n2)COc2ccc/1cc2`, the GI50 is > 100 µM (inactive) in the assay on KM12; > 100 µM (inactive) in the assay on MCF7; > 100 µM (inactive) in the assay on PC-3; > 100 µM (inactive) with HOP-92; over 100 µM with HCT-15; > 100 µM (inactive) in the assay with BT-549. Besides, the GI50 in the assay with COLO 205, in the assay on SK-MEL-5, in the assay on ACHN, with SW-620, in the assay with HCT-116 and with OVCAR-4 was > 100 µM (inactive) throughout. For the same compound, the GI50 in the assay with NCI-H23 was > 100 µM (inactive); with UACC-257, > 100 µM (inactive); in the assay on NCI-H522 it was 34.5 µM (inactive); with SNB-75 it was 64.7 µM (inactive); in the assay with A498, > 100 µM (inactive); in the assay on T47D, > 100 µM (inactive). For the same compound, the GI50 with NCI-H460 and with DU-145 was > 100 µM (inactive) throughout.

For `Cn1c(=O)c2nc(SCc3ccccn3)[nH]c2n(C)c1=S`, the GI50 in the assay on KM12 is > 100 µM (inactive); with MCF7, > 100 µM (inactive); with PC-3, > 100 µM (inactive); in the assay on HOP-92, 39.2 µM (inactive); in the assay with HCT-15 it was over 100 µM; in the assay on BT-549, > 100 µM (inactive). The GI50 in the assay with COLO 205, in the assay with SK-MEL-5, with ACHN, in the assay with SW-620, with HCT-116 and in the assay with OVCAR-4 was > 100 µM (inactive) in each case. Besides, the GI50 was > 100 µM (inactive) with NCI-H23; > 100 µM (inactive) with UACC-257; > 100 µM (inactive) with NCI-H522; 19.5 µM (inactive) in the assay with SNB-75; 23.3 µM (inactive) in the assay on A498; 66.8 µM (inactive) with T47D. Further, the GI50 with NCI-H460 and in the assay on DU-145 was > 100 µM (inactive) throughout.

`O=C(c1cc(Cl)cc(Cl)c1)N(Cc1cccnc1)C(=S)N(Cc1cccnc1)C(=O)c1cc(Cl)cc(Cl)c1`: the GI50 in the assay on KM12 is 24.5 µM (inactive); with MCF7, 5.69 µM (inactive); in the assay on PC-3, 18.4 µM (inactive); in the assay on HOP-92 it was 36.6 µM (inactive); in the assay with HCT-15 it was 25.2 µM; with BT-549 it was 29.2 µM (inactive). For the same compound, the GI50 in the assay with COLO 205 was 15.3 µM (inactive); in the assay with SK-MEL-5, 23.3 µM (inactive); in the assay with ACHN, 22.5 µM (inactive); in the assay on SW-620 it was 27.9 µM (inactive); in the assay on HCT-116 it was 31.1 µM (inactive); in the assay with OVCAR-4, 27.3 µM (inactive). Besides, the GI50 is 63.1 µM (inactive) with NCI-H23; 33 µM (inactive) in the assay with UACC-257; 23.8 µM (inactive) in the assay with NCI-H522; 92.7 µM (inactive) with SNB-75; 27.4 µM (inactive) with A498; 44.7 µM (inactive) in the assay with T47D. In addition, the GI50 is 64.3 µM (inactive) in the assay on NCI-H460 and 41.8 µM (inactive) in the assay with DU-145.

On to `COc1ccc(CNC2=Nc3ccncc3S(=O)(=O)N2c2ccccc2)cc1`, for which the GI50 is 35 µM (inactive) with KM12; 38.5 µM (inactive) in the assay with MCF7; 53.6 µM (inactive) in the assay on PC-3; 29.9 µM (inactive) in the assay on HOP-92; 34.3 µM in the assay on HCT-15; 23.2 µM (inactive) in the assay on BT-549. In addition, the GI50 with COLO 205 is > 100 µM (inactive); in the assay with SK-MEL-5, 19 µM (inactive); in the assay on ACHN, 34 µM (inactive); in the assay on SW-620, 33 µM (inactive); in the assay with HCT-116, 36.5 µM (inactive); in the assay with OVCAR-4 it was 37.4 µM (inactive). For the same compound, the GI50 in the assay on NCI-H23 is 35.5 µM (inactive); in the assay with UACC-257 it was 37.4 µM (inactive); with NCI-H522, 34.1 µM (inactive); in the assay on SNB-75 it was 39.1 µM (inactive); in the assay on A498 it was 35.9 µM (inactive); with T47D, 29.3 µM (inactive). Besides, the GI50 with NCI-H460 was 43.1 µM (inactive); in the assay on DU-145, 45.7 µM (inactive).
